Measurements: patent publication US20040067998A1, “Antifungal and/or antiparasitic pharmaceutical composition and novel indole derivatives as active principle of such a composition” (priority 2003, published 2004)
In brackets after ≈: the same amount, converted by molar mass. Several values for one entry are separate records, joined by “and”; a condition that tells them apart may be missing. Identical values can stand only once. Like-named read-outs stand apart in the source and are kept apart here. Blank lines part the entries; values can stand above or below the compound they belong to.

Tests used:
Type in all cases: cell-based
[1] = test system: Candida albicans (strain n° CA980001); test: Antifungal activity on a clinical strain of Candida albicans (MTT colorimetric microplate test); conditions: for CMI or CI80 Candida albicans (CA980001) / MIC: strain CA980001; for MIC: read-out: CMI or CI80 Candida albicans (CA980001)
[2] = test system: Aspergillus fumigatus (strain n°AF 980003); test: Antifungal activity on a clinical strain of Aspergillus fumigatus (Alamar Blue microplate test); conditions: for MIC / CMI or CI80 Aspergillus fumigatus (AF980003): strain AF980003; for MIC: read-out: CMI or CI80 Aspergillus fumigatus (AF980003); for activity against Aspergillus fumigatus (in words): summary of Tables 27 to 40
[3] = test system: promastigote stage of Leishmania mexicana; test: Antiparasitic activity on the promastigote form of Leishmania (MTT); conditions: for IC50: read-out: CI50 Leishmania mexicana Promastigotes
[4] = Candida albicans, 24 h at 37° C., MTT
[5] = Aspergillus fumigatus, Alamar Blue
[6] = Leishmania mexicana, promastigotes, 36 h at 26° C., MTT

SMILES: CCCCC(c1cn(Cc2ccc(Cl)cc2)c2ccccc12)n1ccnc1.O=C(O)/C=C/C(=O)O (stereo not shown) [66f]
CMI or CI80 Candida albicans (CA980001) [1]: 7 ± 0.1 μM and 3.46 μg/mL | activity of inhibition of Candida albicans (in words) ([1]; summary of Tables 27 to 40): significant activity | MIC [2]: >100 µM | CI50 Leishmania mexicana Promastigotes ([3]; promastigotes): 2.6 ± 0.03 µg/mL | IC50 ([3]; promastigotes): 5.4 ± 0.06 µM

SMILES: CC(c1cn(Cc2ccc(F)cc2)c2ccccc12)n1ccnc1.O=C(O)/C=C/C(=O)O (stereo not shown) [67f]
CMI or CI80 Candida albicans (CA980001) [1]: 57 ± 2 μM and 25 ± 1 μg/mL | CMI or CI80 Aspergillus fumigatus (AF980003) [2]: 64 ± 2 μM and 28 ± 1 μg/mL | activity against Aspergillus fumigatus (in words) [2]: strong activity | CI50 Leishmania mexicana Promastigotes ([3]; promastigotes): 1.57 ± 1.2 µg/mL | IC50 ([3]; promastigotes): 3.6 ± 1.2 µM

SMILES: CC(c1cn(Cc2ccc(Cl)cc2Cl)c2ccccc12)n1ccnc1.O=C(O)/C=C/C(=O)O (stereo not shown) [68f]
CMI or CI80 Candida albicans (CA980001) [1]: 31 ± 7 μM and 15 ± 3 μg/mL | CMI or CI80 Aspergillus fumigatus (AF980003) [2]: 65 ± 3 μM and 31 ± 1 μg/mL | activity against Aspergillus fumigatus (in words) [2]: strong activity | CI50 Leishmania mexicana Promastigotes ([3]; promastigotes): 2.7 ± 0.05 µg/mL | IC50 ([3]; promastigotes): 5.7 ± 0.13 µM

SMILES: CC(c1cn(Cc2ccc(F)cc2F)c2ccccc12)n1ccnc1.O=[N+]([O-])O (stereo not shown) [69n]
CMI or CI80 Candida albicans (CA980001) [1]: 65 ± 6 μM and 26 ± 5 μg/mL | CMI or CI80 Aspergillus fumigatus (AF980003) [2]: 64 ± 5 μM and 21.59 μg/mL | activity against Aspergillus fumigatus (in words) [2]: strong activity

SMILES: Cc1c(C(C)n2ccnc2)c2ccccc2n1Cc1ccc(Cl)cc1Cl.O=[N+]([O-])O (stereo not shown) [71n]
CMI or CI80 Candida albicans (CA980001) [1]: 52 ± 3 μM and 23.31 μg/mL | CMI or CI80 Aspergillus fumigatus (AF980003) [2]: 74 ± 3 μM and 28.44 μg/mL

SMILES: Fc1ccc(Cn2ccc3cc(-c4nnn[nH]4)ccc32)cc1 [Cpsé 2, 1-(4-Fluorobenzyl)-5-(1H-tetrazol-5-yl)-1H-indole]
MIC [1, 4]: 64 ± 1 µM (≈ 18.8 µg/mL) | CMI or CI80 Candida albicans (CA980001) ([1]; 24 h at 37° C., MTT, listed as 4): 19.54 ± 1 µg/mL | MIC [2, 5]: > 100 µM | activity against Leishmania mexicana (in words) [3]: strong activity | IC50 [3, 6]: 3 µg/mL and 10 µM

SMILES: Fc1ccc(Cn2c(Cn3ccnc3)cc3ccccc32)cc1 [Cpsé 3n, 1-(4-Fluorobenzyl)-2-(1H-imidazol-1-ylmethyl)-1H-indole]
MIC [1, 4]: 81 ± 14 µM (≈ 24.7 µg/mL) | CMI or CI80 Candida albicans (CA980001) ([1]; 24 h at 37° C., MTT, listed as 9): 32.46 ± 14 µg/mL | MIC [2, 5]: 21 ± 0.3 µM (≈ 6.41 µg/mL) | CMI or CI80 Aspergillus fumigatus (AF980003) ([2]; Alamar Blue): 8 ± 1.2 µg/mL | activity against Aspergillus fumigatus (in words) [2]: most active | activity against Leishmania mexicana (in words) [3]: strong activity | IC50 [3, 6]: 3.4 µg/mL and 8.5 µM

SMILES: Clc1ccc(Cn2cc(Cn3ccnc3)c3cc(Br)ccc32)cc1 [Cpsé 10, 5-Bromo-1-(4-chlorobenzyl)-3-(1H-imidazol-1-ylmethyl)-1H-indole]
MIC [1, 4]: > 100 µM | MIC [2, 5]: > 100 µM | activity against Leishmania mexicana (in words) [3]: strong activity | IC50 [3, 6]: 3 µg/mL and 7.5 µM

SMILES: CCn1c(C(c2ccc(F)cc2)n2ccnc2)c(C)c2ccccc21 (stereo not shown) [Cpsé 31, 1-Ethyl-2-[(4-fluorophenyl)(1H-imidazol-1-yl)methyl]-3-methyl-1H-indole]
MIC [1, 4]: 58 ± 4 µM (≈ 19.3 µg/mL) | CMI or CI80 Candida albicans (CA980001) ([1]; 24 h at 37° C., MTT, listed as 18): 18 ± 1 µg/mL

SMILES: CCn1cc(C(c2ccc(F)cc2)n2ccnc2)c2cc(Br)ccc21 (stereo not shown) [Cpsé 46, 5-Bromo-1-ethyl-3-[(4-fluorophenyl)(1H-imidazol-1yl)methyl]-1H-indole]
MIC [1, 4]: > 100 µM | MIC [2, 5]: > 100 µM | IC50 [3, 6]: 65 µM and 21 µg/mL

SMILES: CCn1ccc2cc(C(c3ccc(Cl)cc3)n3ccnc3)ccc21 (stereo not shown) [Cpsé 53, 5-[(4-Chlorophenyl)(1H-imidazol-1-yl)methyl]-1-ethyl-1H-indole]
MIC [1, 4]: > 100 µM | MIC [2, 5]: > 100 µM | IC50 [3, 6]: > 100 µM

MIC ([2]; Aspergillus fumigatus): 0.71 µM (≈ 0.501 µg/mL)
SMILES: CCC(C)n1ncn(-c2ccc(N3CCN(c4ccc(OCC5COC(Cn6cncn6)(c6ccc(Cl)cc6Cl)O5)cc4)CC3)cc2)c1=O (stereo not shown) [Itraconazole]
CMI or CI80 Aspergillus fumigatus (AF980003) [2]: 0.5 µg/mL

SMILES: N#Cc1ccc(Cn2cc(Cn3ccnc3)c3cc(Br)ccc32)cc1 [compound 13]
CMI or CI80 Candida albicans (CA980001) ([1]; 24 h at 37° C., MTT): 59 ± 5 μM and 23 ± 2 μg/ml

SMILES: Fc1ccc(Cn2ccc3c(Cn4ccnc4)cccc32)cc1 [compound 17]
CMI or CI80 Candida albicans (CA980001) ([1]; 24 h at 37° C., MTT): 54 ± 1 μM and 16.49 ± 1 μg/ml | CMI or CI80 Aspergillus fumigatus (AF980003) ([2]; Alamar Blue): 72 ± 3 μM and 21.99 ± 2 μg/ml

SMILES: CCn1c(C(c2ccc(Cl)cc2Cl)n2ccnc2)c(C)c2ccccc21 (stereo not shown) [compound 30]
CMI or CI80 Candida albicans (CA980001) [1]: 76 ± 2 μM and 25 ± 1 μg/mL

MIC [1]: <0.001 µM
SMILES: OC(Cn1cncn1)(Cn1ccc2ccccc21)c1ccc(C(F)(F)F)cc1 (stereo not shown) [compound 79]

MIC [1]: <0.001 µM
SMILES: CC(n1ccc2ccccc21)C(O)(Cn1cncn1)c1ccc(F)cc1F (stereo not shown) [compound 81]

SMILES: Brc1ccc(C(Cn2ccc3ccccc32)n2ccnc2)cc1 (stereo not shown) [compound 84]
CMI or CI80 Aspergillus fumigatus (AF980003) [2]: 68 ± 3 μM and 29 ± 1 μg/mL | CI50 Leishmania mexicana Promastigotes [3]: 3.6 ± 0.4 µg/mL (≈ 9.83 µM) | IC50 [3]: 8.45 ± 1.02 µM
